Data published in PMC6726858, “Discovery and characterization of a small‐molecule enteropeptidase inhibitor, SCO‐792” (Pharmacology Research & Perspectives, 2019).
Like-named read-outs stand apart in the source and are kept apart here. *: point of attachment. βNA = c1ccc2cc(N*)ccc2c1

Key:
[1] = target: T1, recombinant light chain of human enteropeptidase (Homo sapiens, UniProt P98073); test: Determination of K m value of enteropeptidase for substrates; format: biochemical; settings: Michaelis–Menten fit of initial velocities
T1 construct: purchased ITSI‐Biosciences (Johnstown, PA)
From the text: Enteropeptidase is produced as a proenteropeptidase in enterocytes, the activation of which requires digestion to a light chain and a heavy chain. The light chain contains the catalytic active site, whereas the disulfide‐linked heavy chain provides the anchor to the brush border membrane. Thus, we used recombinant light chain of human enteropeptidase to discover its inhibitors. To identify small‐molecule enteropeptidase inhibitors, we designed two specific dual‐labeled substrates and developed enzyme assay systems. In the assay, the energy of the donor of an uncleaved substrate is transferred to the proximal acceptor at the opposite side of the substrate. When protease cleaves the substrate, the pair separates and the donor no longer transfers its emission to the acceptor, which leads to an increase in the fluorescence intensity observed from the donor.15 Enteropeptidase activity was measured with our designed substrates, Cy5‐labeled (Figure 1C) and 5FAM‐labeled substrates (Figure 1E), and commercially available substrate, H‐Gly‐Asp‐Asp‐Asp‐Asp‐Lys‐βNA (GDDDDK‐βNA), naphthylamine (Figure 1A). In our assay system, the fluorescence signal from the enzyme reaction increased in a time‐dependent manner. […]

[2] = target: T2, human recombinant enteropeptidase (Homo sapiens, UniProt P98073); test: Enteropeptidase enzyme assay (human recombinant enteropeptidase, FRET substrate); format: biochemical; settings: 120‐minute incubation; read-out: IC50 (95% confidence intervals), human enteropeptidase activity
T2 construct: purchased ITSI‐Biosciences (Johnstown, PA)
Protocol: In the HTS, enzyme and substrate were dissolved in the enteropeptidase assay buffer [50 mmol/L Tricine, pH 8.0, 0.01% (w/v) Tween20, and 10 mmol/L CaCl2]. Twenty‐five nanoliters of compound solution dissolved in DMSO was added to a 1536‐well black plate, and then 2 μL of 90 mU/mL human recombinant enteropeptidase solution was added to the plate and incubated at room temperature for 60 minutes. Next, 2 μL of substrate solution [2.1 μmol/L QSY21‐Gly‐Asp‐Asp‐Asp‐Lys‐Ile‐Val‐Gly‐Gly‐Lys (Cy5)] was added to the plate and incubated at room temperature for 30 minutes. After incubation, 2 μL of 30 mmol/L H2SO4 solution was added to stop the reaction. The fluorescence was measured at an excitation wavelength of 620 nm and an emission wavelength of 685 nm by multilabel plate reader EnVision (PerkinElmer, Waltham, MA).
For kinetic analysis, compounds were dissolved in DMSO and then diluted in the enteropeptidase assay buffer. […] The fluorescence was measured every minute at an excitation wavelength of 485 nm and an emission wavelength of 520 nm using an EnVision multilabel plate reader. The progress curves were fitted to the following equation to determine the values for k obs, the apparent rate constant from initial rate v 0 to steady state rate v s:(1) F=vst+(v0-vs)(1-e^-kobst)/kobs+F0, where t is the time, F is the fluorescence, and F 0 is the fluorescence at time t = 0. […]

[3] = target: T2, human recombinant enteropeptidase; test: Kinetic analysis of enteropeptidase inhibition (progress curves, k obs); format: biochemical; settings: for k inact/K I: 5FAM‐labeled substrate 0.7 μmol/L, corrected for [S]/Km
Protocol: For kinetic analysis, compounds were dissolved in DMSO and then diluted in the enteropeptidase assay buffer. Five microliters of compound solution was added to a 384‐well black plate followed by 5 μL of substrate solution [2.1 μmol/L 5FAM‐Abu‐Gly‐Asp‐Asp‐Asp‐Lys‐Ile‐Val‐Gly‐Gly‐Lys (CPQ2)‐Lys‐Lys‐NH2] and 5 μL of 24 mU/mL human recombinant enteropeptidase solution and mixed. The final concentration of substrate was 0.7 μmol/L, which is almost the same as the K m value. The fluorescence was measured every minute at an excitation wavelength of 485 nm and an emission wavelength of 520 nm using an EnVision multilabel plate reader. The progress curves were fitted to the following equation to determine the values for k obs, the apparent rate constant from initial rate v 0 to steady state rate v s:(1) F=vst+(v0-vs)(1-e^-kobst)/kobs+F0, where t is the time, F is the fluorescence, and F 0 is the fluorescence at time t = 0.
The k inact/K I,app value was determined as the slope of the [I] vs k obs plot, and the corrected k inact/K I value was also estimated according to the following equation:(2) kinact/KI,app=kinact/KI/(1+[S]/Km), where [I] is the concentration of inhibitor, [S] is the concentration of substrate, and K m is the Michaelis–Menten constant.

[4] = target: T2, human recombinant enteropeptidase; test: Dissociation assay (rapid dilution); format: biochemical
Protocol: For the dissociation assay, compounds were dissolved in DMSO and then diluted in the enteropeptidase assay buffer. Ten microliters of compound solution was added to a 96‐well plate, and then 10 μL of 100 mU/mL human recombinant enteropeptidase solution was added to the plate and incubated at room temperature for 120 minutes. The concentration of the compound was equal to 10‐fold of the IC50 value upon incubation for 120 minutes. After this incubation, 2 μL of an compound‐enzyme mixture was transferred to a 96‐well black plate, and then 200 μL of substrate solution [3 μmol/L 5FAM‐Abu‐Gly‐Asp‐Asp‐Asp‐Lys‐Ile‐Val‐Gly‐Gly‐Lys(CPQ2)‐Lys‐Lys‐NH2] was added to the well. By its rapid dilution, the concentration of the inhibitor dropped from 10‐fold above the IC50 to 10‐fold below it. The fluorescence was measured every […] at an excitation wavelength of 485 nm and an emission wavelength of 520 nm using an EnVision multilabel plate reader. The progress curves were fitted to the following equations to determine the values for k off and dissociation half‐life, t 1/2.(3) F=vst+((v0-vs)(1-e^-kofft))/koff+F0 (4) t1/2=ln(2)/koff

chymotrypsin = test: Serine protease selectivity: chymotrypsin; format: biochemical; settings: at 10 μmol/L
DPP‐4 = DPP‐4 (Homo sapiens, UniProt P27487); test: Serine protease selectivity: DPP‐4; format: biochemical; settings: at 10 μmol/L; read-out: inhibitory activity against DPP‐4
factor XIIa = target: T3, factor XIIa (Homo sapiens, UniProt P00748); test: Serine protease selectivity: factor XIIa; format: biochemical; settings: at 10 μmol/L; read-out: inhibitory activity against factor XIIa
T3 sequence (P00748 373-615 limits assumed): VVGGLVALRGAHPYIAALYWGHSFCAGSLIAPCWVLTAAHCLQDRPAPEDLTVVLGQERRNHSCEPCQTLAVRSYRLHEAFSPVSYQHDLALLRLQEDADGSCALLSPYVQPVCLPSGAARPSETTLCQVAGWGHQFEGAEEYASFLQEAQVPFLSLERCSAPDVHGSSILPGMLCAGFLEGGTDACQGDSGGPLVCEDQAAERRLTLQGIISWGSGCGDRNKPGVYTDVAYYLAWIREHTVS

factor Xa = factor Xa (Homo sapiens, UniProt P00742); test: Serine protease selectivity: factor Xa; format: biochemical; settings: at 10 μmol/L; read-out: inhibitory activity against factor Xa
thrombin = thrombin (Homo sapiens, UniProt P00734); test: Serine protease selectivity: thrombin; format: biochemical; settings: at 10 μmol/L; read-out: inhibitory activity against thrombin
plasma kallikrein = plasma kallikrein (Homo sapiens, UniProt P03952); test: Serine protease selectivity: plasma kallikrein (Panlabs Enzymatic Assay Services, Eurofins); format: biochemical
plasmin = plasmin (Homo sapiens, UniProt P00747); test: Serine protease selectivity: plasmin (Panlabs Enzymatic Assay Services, Eurofins); format: biochemical
[5] = Pharmacokinetic study in rats; format: in vivo, Sprague‐Dawley rats; settings: for AUC(0-t): read-out: AUC0–24 h
Protocol: Male Sprague‐Dawley rats were obtained from Charles River Laboratories Japan, Inc. (Yokohama, Japan). A pharmacokinetic study was conducted when the animals were 8 weeks old. For oral administration, SCO‐792 was suspended in a 0.5% (w/v) methylcellulose solution. For intravenous administration, SCO‐792 was dissolved in DMSO and added with saline to prepare a dosing formulation at a concentration of 0.2 mg/mL (DMSO:saline = 2:8 (v/v)). The oral dosing formulations were mixed well and given to fed‐male rats at single doses of 10 mg/5 ml/kg using polypropylene syringes with gavage needles. The intravenous dosing formulation was injected into the femoral vein of fed‐male rats at a dose of 0.2 mg/1 ml/kg using polypropylene syringes with needles under anesthesia with isoflurane. The blood was collected at the indicated time points, and the plasma concentrations of SCO‐792 were determined by high‐performance liquid chromatography/tandem mass spectrometry.

[6] = system: plasma branched‐chain amino acids (BCAA); test: Oral protein challenge in rats (plasma BCAA); format: in vivo, Sprague‐Dawley rats; settings: 10, 30 mg/kg oral, ≤4 hour prior to whey protein load 2.5 g/kg
Protocol: Male Sprague‐Dawley rats were obtained from CLEA Japan Inc. (Tokyo, Japan). Eight‐week‐old rats were randomized into three groups on the basis of body weight and body weight change before the experiment (n = 4). SCO‐792 (10, 30 mg/kg in a 0.5% (w/v) methylcellulose solution) was then orally administered 1, 2, 4, and 6 hours before an oral whey protein load (2.5 g/kg; SAVAS whey protein 100, Meiji, Japan), and blood samples were collected at indicated time points for the measurement of plasma branched‐chain amino acids (BCAA).
Plasma BCAA concentration was measured using an enzymatic spectrophotometric assay as described by Beckett.14 Briefly, bacterial leucine dehydrogenase was used to catalyze the oxidation of BCAA, and the production of NADH was measured using a spectrophotometer (excitation 355 nm, emission 460 nm). L‐leucine was used to generate a standard curve to determine sample concentrations.

Chemical stability = format: physicochemical
[7] = 120 min preincubation, rapid dilution
[8] = male, Sprague-Dawley, rat, in vivo, intravenous, 0.2 mg/kg, mean ± SD (n = 3)
[9] = male, Sprague-Dawley, rat, in vivo, oral, 10 mg/kg, mean ± SD (n = 3)

T2 sequence (P98073 785-1019 limits assumed): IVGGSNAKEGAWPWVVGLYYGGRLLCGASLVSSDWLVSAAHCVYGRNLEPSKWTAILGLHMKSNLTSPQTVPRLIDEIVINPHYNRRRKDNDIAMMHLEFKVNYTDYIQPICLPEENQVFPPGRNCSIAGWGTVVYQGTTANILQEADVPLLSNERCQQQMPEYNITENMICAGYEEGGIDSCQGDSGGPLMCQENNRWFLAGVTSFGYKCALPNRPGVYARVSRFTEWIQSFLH
T1 sequence (P98073 785-1019 limits assumed): as above
Chain of plasma kallikrein (P03952 391-638 limits assumed, species assumed): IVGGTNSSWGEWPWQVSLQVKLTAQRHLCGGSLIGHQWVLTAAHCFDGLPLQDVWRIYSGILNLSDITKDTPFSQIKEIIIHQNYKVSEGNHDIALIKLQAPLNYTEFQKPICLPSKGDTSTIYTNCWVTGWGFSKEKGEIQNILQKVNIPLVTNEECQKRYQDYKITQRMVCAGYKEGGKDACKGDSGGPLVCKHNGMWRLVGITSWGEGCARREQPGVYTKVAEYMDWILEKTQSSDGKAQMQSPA
Chain of plasma kallikrein (P03952 20-390 partner limits assumed, species assumed): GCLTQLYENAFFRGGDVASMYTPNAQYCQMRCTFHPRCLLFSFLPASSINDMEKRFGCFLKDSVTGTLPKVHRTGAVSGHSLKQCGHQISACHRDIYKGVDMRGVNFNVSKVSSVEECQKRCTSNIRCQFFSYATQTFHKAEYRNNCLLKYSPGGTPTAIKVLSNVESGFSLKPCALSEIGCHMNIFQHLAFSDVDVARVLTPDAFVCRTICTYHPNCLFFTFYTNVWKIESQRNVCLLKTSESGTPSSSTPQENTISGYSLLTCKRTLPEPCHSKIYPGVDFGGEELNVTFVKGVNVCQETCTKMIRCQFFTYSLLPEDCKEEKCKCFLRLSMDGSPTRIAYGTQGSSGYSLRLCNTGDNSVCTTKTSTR
Chain of factor Xa (P00742 235-488 limits assumed): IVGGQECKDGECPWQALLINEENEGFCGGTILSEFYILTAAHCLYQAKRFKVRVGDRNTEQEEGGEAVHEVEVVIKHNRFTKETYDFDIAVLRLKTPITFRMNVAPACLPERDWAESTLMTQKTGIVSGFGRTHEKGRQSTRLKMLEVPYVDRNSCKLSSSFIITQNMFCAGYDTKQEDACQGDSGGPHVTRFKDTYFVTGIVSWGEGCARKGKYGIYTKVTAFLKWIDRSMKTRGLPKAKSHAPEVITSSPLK
Chain of factor Xa (P00742 41-179 partner limits assumed): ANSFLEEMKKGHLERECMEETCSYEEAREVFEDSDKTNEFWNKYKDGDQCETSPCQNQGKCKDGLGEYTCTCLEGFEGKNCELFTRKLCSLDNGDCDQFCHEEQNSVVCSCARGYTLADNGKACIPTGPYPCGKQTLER
Chain of DPP‐4 (P27487 whole entry, species assumed): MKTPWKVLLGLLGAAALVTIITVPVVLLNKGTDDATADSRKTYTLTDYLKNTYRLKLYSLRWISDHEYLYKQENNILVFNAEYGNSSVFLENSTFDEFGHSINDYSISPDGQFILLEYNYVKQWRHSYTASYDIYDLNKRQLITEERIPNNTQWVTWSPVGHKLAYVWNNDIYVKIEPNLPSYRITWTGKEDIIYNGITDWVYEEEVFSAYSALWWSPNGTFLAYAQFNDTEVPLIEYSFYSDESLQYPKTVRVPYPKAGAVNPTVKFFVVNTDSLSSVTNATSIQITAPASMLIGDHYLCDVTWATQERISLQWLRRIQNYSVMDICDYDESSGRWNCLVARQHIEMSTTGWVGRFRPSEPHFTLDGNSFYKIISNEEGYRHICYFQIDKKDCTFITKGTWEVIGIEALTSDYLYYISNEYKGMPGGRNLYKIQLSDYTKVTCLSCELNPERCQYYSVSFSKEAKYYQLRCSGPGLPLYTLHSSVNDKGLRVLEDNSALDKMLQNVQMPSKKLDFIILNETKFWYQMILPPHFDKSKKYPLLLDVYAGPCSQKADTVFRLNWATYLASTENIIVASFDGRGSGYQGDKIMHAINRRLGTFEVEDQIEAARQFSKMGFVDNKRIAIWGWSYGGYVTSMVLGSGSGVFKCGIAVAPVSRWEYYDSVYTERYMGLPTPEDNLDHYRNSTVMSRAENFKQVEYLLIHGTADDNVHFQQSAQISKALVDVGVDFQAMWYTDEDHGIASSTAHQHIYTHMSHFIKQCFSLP
Chain of plasmin (P00747 581-810 limits assumed, species assumed): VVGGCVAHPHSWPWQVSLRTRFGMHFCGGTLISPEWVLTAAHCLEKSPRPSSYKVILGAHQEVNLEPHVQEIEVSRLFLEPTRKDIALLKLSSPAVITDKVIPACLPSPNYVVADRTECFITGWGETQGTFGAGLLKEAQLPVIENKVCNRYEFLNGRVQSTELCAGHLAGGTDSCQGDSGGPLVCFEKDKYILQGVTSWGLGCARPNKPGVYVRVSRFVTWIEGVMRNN
Chain of plasmin (P00747 97-580 partner limits assumed, species assumed): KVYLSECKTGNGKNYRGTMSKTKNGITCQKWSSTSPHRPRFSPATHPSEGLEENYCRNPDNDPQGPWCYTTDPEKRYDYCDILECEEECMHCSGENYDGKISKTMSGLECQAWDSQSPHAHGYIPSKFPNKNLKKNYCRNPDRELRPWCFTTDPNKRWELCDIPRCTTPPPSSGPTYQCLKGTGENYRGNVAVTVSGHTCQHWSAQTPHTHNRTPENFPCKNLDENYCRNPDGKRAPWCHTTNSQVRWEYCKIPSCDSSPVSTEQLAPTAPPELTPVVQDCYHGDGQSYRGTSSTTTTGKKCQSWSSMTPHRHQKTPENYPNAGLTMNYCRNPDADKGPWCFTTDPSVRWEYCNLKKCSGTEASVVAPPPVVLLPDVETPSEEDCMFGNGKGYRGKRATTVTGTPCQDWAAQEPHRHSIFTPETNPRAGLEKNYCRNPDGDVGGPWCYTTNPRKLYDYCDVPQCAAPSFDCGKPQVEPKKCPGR

Compound: H-GDDDDK-βNA [GDDDDK‐βNA]
- K m value for enteropeptidase [1]: 230 µM

Compound: N=C(N)Nc1ccc(C(=O)Oc2ccc3c(c2)OC[C@H]3CC(=O)N[C@@H](CC(=O)O)C(=O)O)cc1.O [SCO‐792, N‐({(3S)‐6‐[(4‐carbamimidamidobenzoyl)oxy]‐2,3‐dihydro‐1‐benzofuran‐3‐yl}acetyl)‐L‐aspartic acid hydrate]
- IC50 [2]: 5.4 nM
- time dependence of enteropeptidase inhibition [3]: time‐dependent
- k inact/K I [3]: 82 000 /mol/L s
- reversibility of inhibition [4]: reversible
- dissociation t 1/2 [4, 7]: 14 h
- koff [4, 7]: 1.31e-05 s⁻¹
- inhibitory activity against chymotrypsin (chymotrypsin): < 50%
- inhibition at 10 µM (DPP‐4): < 50%
- inhibition at 10 µM (factor XIIa): < 50%
- inhibition at 10 µM (factor Xa): < 50%
- inhibition at 10 µM (thrombin): < 50%
- IC50 (plasma kallikrein): 16 nM
- IC50 (plasmin): 460 nM
- BA ([5]; from AUC0‐24 h oral 10 mg/kg vs intravenous 0.2 mg/kg): 0.4%
- AUC(0-inf) [5, 8]: 304 ± 30 ng·h/mL
- half-life [5, 8]: 5.2 ± 1.8 h
- AUC(0-t) [5, 8]: 303 ± 23 ng·h/mL
- clearance ([5]; male, Sprague-Dawley, rat, in vivo, intravenous, 0.2 mg/kg, mean ± SD (n = 3), read-out: CLp (converted)): 11.1 mL/min/kg
- Vd ([5]; male, Sprague-Dawley, rat, in vivo, intravenous, 0.2 mg/kg, mean ± SD (n = 3), read-out: Vss): 1.29 ± 0.299 L/kg
- Cmax at 5 min ([5]; male, Sprague-Dawley, rat, in vivo, intravenous, 0.2 mg/kg, observed at 5 minutes, mean ± SD (n = 3), read-out: C max (C5 min)): 564 ± 58 ng/mL
- AUC(0-inf) [5, 9]: 49.8 ± 5.4 ng·h/mL
- Cmax [5, 9]: 6.6 ± 1.36 ng/mL
- Tmax [5, 9]: 1.7 ± 0.6 h
- half-life [5, 9]: 4.4 ± 0.5 h
- AUC(0-t) [5, 9]: 54.1 ± 7.5 ng·h/mL
- effect on plasma BCAA elevations induced by oral protein dosing [6]: effectively and dose‐dependently inhibited

Compound: 5FAM‐Abu‐Gly‐Asp‐Asp‐Asp‐Lys‐Ile‐Val‐Gly‐Gly‐Lys (CPQ2)‐Lys‐Lys‐NH2 [5FAM‐labeled substrate]
- K m value for enteropeptidase [1]: 0.7 µM

Compound: Cc1cc(OC(=O)c2ccc(NC(=N)N)cc2)no1 [T‐0046812]
- IC50 [2]: 140 nM
- time dependence of enteropeptidase inhibition [3]: time‐dependent
- k inact/K I [3]: 5300 mol⁻¹ L⁻¹ s⁻¹
- chemical stability (Chemical stability; pH 1.2): unstable
- chemical stability (Chemical stability; pH 6.8): unstable
